Results published in patent publication US9957271B2, “Substituted bicyclic aza-heterocycles and analogues as sirtuin modulators” (GlaxoSmithKline, LLC, priority 2012, dated 2018).

Legend:
SIRT1 [1] = biological target: T1, SIRT1 (Homo sapiens, UniProt Q96EB6); test: Trp mass spectrometry assay of SIRT1 activity; format: biochemical; settings: Trp peptide substrate; for Trp EC1.5 (μM): concentration of test compound giving 150% activation of SIRT1; for Emax: percent maximum fold activation of SIRT1, read-out: Trp % Fold Act
T1 sequence (Q96EB6 1-747): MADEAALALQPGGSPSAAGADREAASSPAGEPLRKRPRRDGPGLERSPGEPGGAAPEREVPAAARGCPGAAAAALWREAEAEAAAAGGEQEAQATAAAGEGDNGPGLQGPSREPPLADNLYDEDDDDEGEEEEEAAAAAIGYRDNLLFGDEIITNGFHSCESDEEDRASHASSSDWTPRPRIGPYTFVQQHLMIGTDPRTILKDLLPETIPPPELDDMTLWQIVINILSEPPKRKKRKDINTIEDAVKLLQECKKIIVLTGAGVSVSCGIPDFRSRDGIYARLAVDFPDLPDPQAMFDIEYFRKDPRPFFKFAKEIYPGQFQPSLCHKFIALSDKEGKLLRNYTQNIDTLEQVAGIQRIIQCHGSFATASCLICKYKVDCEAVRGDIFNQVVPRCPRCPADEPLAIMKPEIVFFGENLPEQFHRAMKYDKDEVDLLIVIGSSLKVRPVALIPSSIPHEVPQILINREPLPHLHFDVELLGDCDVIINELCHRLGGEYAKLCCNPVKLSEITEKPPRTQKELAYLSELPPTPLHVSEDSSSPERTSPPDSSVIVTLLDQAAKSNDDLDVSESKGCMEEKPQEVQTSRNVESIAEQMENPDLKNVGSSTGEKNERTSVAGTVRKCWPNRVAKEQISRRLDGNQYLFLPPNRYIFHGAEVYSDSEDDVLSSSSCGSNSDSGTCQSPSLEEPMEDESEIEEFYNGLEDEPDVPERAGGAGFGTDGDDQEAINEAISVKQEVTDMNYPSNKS
Method in brief: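 Activation readout: EC1.5 (concentration raising activity 50% over control) and percent maximum activation, from mass-spec quantitation of OAADPR or deacetylated Trp peptide. Reaction: 0.5 μM acetylated Trp peptide, 120 μM βNAD+, 10 nM bacterially expressed N-His SIRT1, pH 7.5 HEPES buffer with […], 25 min at 25° C.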

SIRT1 [2] = biological target: T1, SIRT1; test: TAMRA based mass spectrometry assay of SIRT1 activity; format: biochemical; settings: TAMRA peptide substrate; for TAMRA EC1.5 (μM): concentration of test compound giving 150% activation of SIRT1; for Emax: percent maximum fold activation of SIRT1, read-out: TAMRA % Fold Act
Method in brief: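 Deacetylation of a biotinylated, TAMRA-tagged p53-based peptide (0.5 μM) by 10 nM His-tagged SIRT1 with 120 μM βNAD+, 25 °C for 25 min, pH 8 Tris-acetate buffer, across a compound concentration range. Quenched by formic acid and read by mass spec as product peptide or OAADPR; activity relative to DMSO reactions, nicotinamide defining maximal inhibition.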

| SMILES | Trp EC1.5 (μM) (SIRT1 [1]) | Emax (SIRT1 [1]) | TAMRA EC1.5 (μM) (SIRT1 [2]) | Emax (SIRT1 [2]) |
| --- | --- | --- | --- | --- |
| O=C(Nc1ccccn1)c1cnc2ccc(-c3cccc(OC(F)(F)F)c3)nn12 [Compound 8] | B (EC1.5 1-25 μM) | < 350% | B (EC1.5 1-25 μM) | < 350% |
| CS(=O)(=O)c1cccc(-c2ccc3ncc(C(=O)Nc4nccs4)n3n2)c1 [Compound 11] | A (EC1.5<1 μM) | ≥ 350% | C (EC1.5>25 μM) | < 350% |
| O=C(Nc1ccccn1)c1cnc2ccc(-c3ccccc3OC(F)(F)F)nn12 [Compound 14] | B (EC1.5 1-25 μM) | ≥ 350% | A (EC1.5<1 μM) | ≥ 350% |
| Cc1cnc(NC(=O)c2cnc3ccc(-c4cccc(C(F)(F)F)c4)nn23)s1 [Compound 17] | B (EC1.5 1-25 μM) | < 350% | B (EC1.5 1-25 μM) | < 350% |
| O=C(Nc1nc(CN2CCOCC2)cs1)c1cnc2ccc(-c3ccccc3C(F)(F)F)nn12 [Compound 20] | B (EC1.5 1-25 μM) | < 350% | A (EC1.5<1 μM) | ≥ 350% |
| O=C(Nc1ccnc(CN2CCOCC2)n1)c1cnc2ccc(-c3ccccc3C(F)(F)F)nn12 [Compound 23] | B (EC1.5 1-25 μM) | < 350% | B (EC1.5 1-25 μM) | ≥ 350% |
| O=C(Nc1ccnc(N2CCCC2)c1)c1cnc2ccc(-c3ccccc3C(F)(F)F)nn12 [Compound 25] | A (EC1.5<1 μM) | ≥ 350% | A (EC1.5<1 μM) | ≥ 350% |
| O=C(Nc1cccc(CN2CCOCC2)n1)c1cnc2ccc(-c3cccc(Cl)c3)nn12 [Compound 26] | C (EC1.5>25 μM) | < 350% | A (EC1.5<1 μM) | ≥ 350% |
| O=C(Nc1nc(CN2CCOCC2)cs1)c1cnc2ccc(-c3cccc(F)c3)nn12 [Compound 29] | B (EC1.5 1-25 μM) | < 350% | B (EC1.5 1-25 μM) | < 350% |
| O=C(Nc1ccccn1)c1cnc2ccc(-c3ccccc3C(F)F)nn12 [Compound 32] | B (EC1.5 1-25 μM) | < 350% | B (EC1.5 1-25 μM) | < 350% |
| O=C(Nc1cccc(CN2CCOCC2)n1)c1cnc2ccc(-c3ccccc3C(F)F)nn12 [Compound 34] | B (EC1.5 1-25 μM) | < 350% | A (EC1.5<1 μM) | ≥ 350% |
| O=C(Nc1nc(CN2CCOCC2)cs1)c1cnc2ccc(-c3ccccc3C(F)F)nn12 [Compound 35] | C (EC1.5>25 μM) | < 350% | B (EC1.5 1-25 μM) | < 350% |
| O=C(Nc1ccnc(CN2CCOCC2)n1)c1cnc2ccc(-c3ccccc3C(F)F)nn12 [Compound 38] | C (EC1.5>25 μM) | < 350% | B (EC1.5 1-25 μM) | < 350% |
| O=C(Nc1cccc(CN2CCOCC2)n1)c1cnc2ccc(-c3ccc(F)cc3F)nn12 [Compound 41] | C (EC1.5>25 μM) | < 350% | B (EC1.5 1-25 μM) | < 350% |
| O=C(Nc1cccc(CN2CCOCC2)n1)c1cnc2ccc(-c3ccc(F)c(F)c3)nn12 [Compound 43] | C (EC1.5>25 μM) | < 350% | B (EC1.5 1-25 μM) | < 350% |
| O=C(Nc1nc(CN2CCOCC2)cs1)c1cnc2ccc(-c3ccc(F)c(F)c3)nn12 [Compound 44] | B (EC1.5 1-25 μM) | < 350% | B (EC1.5 1-25 μM) | < 350% |
| O=C(Nc1cccc(CN2CCOCC2)n1)c1cnc2ccc(-c3cccc(F)c3F)nn12 [Compound 47] | C (EC1.5>25 μM) | < 350% | A (EC1.5<1 μM) | ≥ 350% |
| O=C(Nc1ccnc(N2CCC2)c1)c1cnc2ccc(-c3ccccc3C(F)(F)F)nn12 [Compound 50] | A (EC1.5<1 μM) | ≥ 350% | A (EC1.5<1 μM) | ≥ 350% |
| O=C(Nc1cccc(N2CCC2)n1)c1cnc2ccc(-c3ccccc3C(F)F)nn12 [Compound 51] | B (EC1.5 1-25 μM) | ≥ 350% | A (EC1.5<1 μM) | ≥ 350% |
| Cc1noc(C)c1-c1ccc2ncc(C(=O)Nc3cccc(N4CCOCC4)n3)n2n1 [Compound 53] | B (EC1.5 1-25 μM) | < 350% | B (EC1.5 1-25 μM) | < 350% |
| Cn1cc(-c2ccc3ncc(C(=O)Nc4cccc(N5CCOCC5)n4)n3n2)cn1 [Compound 56] | B (EC1.5 1-25 μM) | < 350% | B (EC1.5 1-25 μM) | < 350% |
| Cc1ncccc1-c1ccc2ncc(C(=O)Nc3ccnc(N4CCCC4)c3)n2n1 [Compound 59] | C (EC1.5>25 μM) | < 350% | B (EC1.5 1-25 μM) | < 350% |
| O=C(Nc1ccnc(N2CCC2)c1)c1cnc2ccc(-c3cncc(C(F)F)c3)nn12 [Compound 62] | C (EC1.5>25 μM) | < 350% | B (EC1.5 1-25 μM) | < 350% |
| O=C(Nc1ccnc(N2CCOCC2)c1)c1nnc2ccc(-c3ccccc3C(F)F)nn12 [Compound 68] | B (EC1.5 1-25 μM) | < 350% | B (EC1.5 1-25 μM) | < 350% |
| Cc1nc2ccc(-c3ccccc3C(F)(F)F)nn2c1C(=O)Nc1cccc(N2CCC2)n1 [Compound 69] | B (EC1.5 1-25 μM) | ≥ 350% | A (EC1.5<1 μM) | ≥ 350% |
| Cc1nc2ccc(-c3ccccc3C(F)(F)F)nn2c1C(=O)Nc1cccc(N2CCOCC2)n1 [Compound 71] | A (EC1.5<1 μM) | ≥ 350% | A (EC1.5<1 μM) | ≥ 350% |
| O=C(Nc1ccnc(OCC(O)CO)n1)c1cnc2ccc(-c3ccccc3C(F)(F)F)nn12 (stereo not shown) [Compound 74] | A (EC1.5<1 μM) | ≥ 350% | A (EC1.5<1 μM) | ≥ 350% |
| O=C(Nc1ccncc1)c1cnc2ccc(-c3ccccc3C(F)(F)F)nn12 [Compound 77] | B (EC1.5 1-25 μM) | < 350% | B (EC1.5 1-25 μM) | ≥ 350% |
